Laboratory results as given in patent US20040214184A1, “Small peptides capable of modulating the function of cd66 (ceacam) family members” (priority 2001, published 2004).
“Also recorded” adds a separate entry of the source.

Tested on: T-cells
Experiment: T-cell activation assay (anti-CD3 stimulated proliferation, 3H-Tdr incorporation)
Type: cell-based
Conditions: for activity in the T-cell activation assay (T-cell activation by anti-CD3, proliferation quantitated by 3H-Tdr incorporation): 30 min preincubation, anti-CD3 0.3 μg/ml, 56 h then 16 h with 3H-Tdr
Method: FIG. 1. Effects of CD66a peptides on T-cell activation by anti-CD3. T-cells were added to media containing the indicated CD66a peptide S28 ((CD66a-24), (SEQ ID NO:1)) at 150 μg/ml (final concentration) or positive or negative controls in 96 well microtiter plates, and the plates were incubated at 37° C. for 30 min in 5% CO2. Media containing anti-CD3 anitbody was then added and the cells were incubated at […] for 56 hours. Twenty μL of media containing 1 μCi of ^3H-Tdr was then added to each well and the plates were incubated at 37° C. for 30 min in 5% CO2 for an additional 16 hours. The cells were then harvested onto glass fiber filter papers and the radioactivity incorporated into the cells was then determined by liquid scintillation counting. Values are shown as the amount of ^3H-Tdr incorporation in the presence of the indicated peptide as a percent of that incorpoated in the absence of peptide, and represent the means+/−SD of 4 separate determinations.
Cell Preparation. Peripheral blood mononuclear cells (PBMC) were isolated by centrifugation of heparinized blood on a Ficoll/Hypaque (Pharmacia, Uppsala, Sweden) density gradient. Cells from the interface of the gradient were harvested, and resuspended at a concentration of 10^6/ml in medium [RPMI-1640 supplemented with 10% heat inactivated fetal bovine serum, 2 mM L-glutamine, 10 mM HEPES buffer, pH 7.4, 100 U/ml penicillin and 100 ug/ml streptomycin (Gibco, Paisley, U.K.)]. To isolate T-cells, adherent cells were eliminated from PBMC by culture for one hour at 37° C. in 5% CO2 on tissue culture-treated plastic. Remaining B-cells, monocytes, and NK cells were deleted by immunomagnetic negative selection using anti-CD14, anti-CD19, and anti-CD56 microbeads per the manufacturer's recommendations (Miltenyi Biotec GMBH, Bergisch Gladbach, Germany). The purity of the isolated T-cells was >90% as assessed by flow cytometry using FITC-labeled anti-CD3 (Pharmingen, Hamburg, Germany).
T-cell activation assay. Purified T-cells (1×10^5/well) were plated into flat-bottomed 96 well microtiter plates (Greiner, Frickenhausen, Germany) and peptides were added at the indicated concentration. T-cells were incubated with the peptides for 30 min and then stimulated by adding 0.3 μg/ml of anti-CD3 mAb (Pharmingen). The cells were then incubated at 37° C. in 5% CO2 for 56 hours. One μCi of tritiated thymidine (3H-Tdr) (Amersham Buchler, Braunschweig, Germany) in 20 μl of RPMI-1640 was then added to each well, and the cells were cultured for another 16 hours. Cells were then harvested with a cell harvester (Pharmacia LKB-Wallac) onto glass fiber filter paper in a minifold filtration unit (Wallac, Turku, Finland). Individual filters were dissolved in scintillation fluid, and ^3H-Tdr incorporation was measured with a liquid scintillation counter (Pharmacia).

| Substance | activity in the T-cell activation assay (T-cell activation by anti-CD3, proliferation quantitated by 3H-Tdr incorporation) (peptide 150 μg/ml) | T-cell proliferation (3H-Tdr incorporation) in the presence of peptide compared with media alone (positive control) (peptide 150 μg/ml, anti-CD3 stimulation, 4 determinations, p<0.05) | cell proliferation (3H-Tdr incorporation) in the presence of peptide compared with the 2 scrambled peptides S159 and S160 (peptides 150 μg/ml, anti-CD3 stimulation, 4 determinations, p<0.05) |
| --- | --- | --- | --- |
| IRWFFKN [Peptide S182, smaller part (right) of peptide S28] | had activity | – | – |
| TGISIRW [Peptide S181, smaller part (middle) of peptide S28] | had activity | – | – |
| TNDTGIS [Peptide S180, smaller part (left) of peptide S28] | had activity | – | – |
| TNDTGISIRWFFKN [Peptide S28, 14-amino-acid peptide derived from CD66a] | inhibited T-cell activation by anti-CD3 compared with control; also recorded: found to have activity; also recorded: potent inhibitor of T-cell activation | statistically less than that observed with media alone | statistically less than that observed with the 2 scrambled peptides |
